Assay results published in patent publication US12564595B2, “Prophylactic and therapeutic pharmaceutical agent for HIV infectious diseases characterized by comprising combination of integrase inhibitor and anti-HIV agent” (Shionogi & Co., Ltd., priority 2019, dated 2026).

How the values were obtained:
[1] = system: HIV mutant strain 1 (E138K/G140S/Q148H/N155H); assay: Test Example 2: resistance evaluation test (HeLa-CD4 reporter), mutant strain 1; assay type: cell-based; settings: FC=EC50 of mutant strain/EC50 of wild strain; HeLa-CD4 cells
Experimental: (§1) A serial dilution series of test samples in 96-well microplates was prepared (50 […]).
(§2) 2.5×10^4/mL of HeLa-CD4 cell suspension was dispensed into each of the microplates containing test sample, in the amount of 100 μL/well, and HIV virus liquid (wild strain and mutant strain) was then dispensed in an amount of 50 μL/well. Mixing was performed using a plate mixer and culturing was performed for three days in a CO2 incubator. After removing the cultured supernatant of each well by suction, 100 μL of the cell solution buffer in the reporter measurement kit was dispensed thereto, and freezing was conducted in a refrigerator (−80° C.). The plates frozen in the refrigerator were defrosted at room temperature, then mixed using a plate mixer and centrifuged for 5 min at 1,200 rpm. The supernatant of each well was divided to 96-well microplates (BLACK) in the amount of 20 μL in each case. The chemiluminescence reagent in the reporter assay kit was dispensed in the amount of 100 μL in each case, and, after reacting for about 1 h at room temperature, the amount of luminescence was measured using a MicroBeta TRILUX.
(§3) The degree of resistance (fold change (FC)) of each mutant strain was also calculated using the following formula. FC=EC50 of mutant strain/EC50 of wild strain (Results)
(§4) The results of the example compounds relating to formula (I) of (A) are shown below. The […] in respect of mutant strain 1 (E138K/G140S/Q148H/N155H) and the FC in respect of mutant strain 2 (E92Q/E138T/G140S/Q148H) are shown in the Table.

[2] = system: HIV mutant strain 2 (E92Q/E138T/G140S/Q148H); assay: Test Example 2: resistance evaluation test (HeLa-CD4 reporter), mutant strain 2; assay type: cell-based; settings: FC=EC50 of mutant strain/EC50 of wild strain; HeLa-CD4 cells
Experimental: as §1, §2, §3, §4

[3] = Test Example 8: metabolic stability test; assay type: in vitro ADME, human
Experimental: The extent of metabolization of the compound according to the present invention in the liver was evaluated by reacting commercially available pooled human liver microsomes with the compound according to the present invention for a fixed time and calculating the remaining percentage by comparing the reaction sample with an unreacted sample.
The reaction (oxidative reaction) was conducted for 0 min or 30 min at 37° C. in the presence of 1 mmol/L of NADPH, in a 0.2 mL buffer solution containing 0.5 mg of human liver microsome protein/mL (50 mmol/L Tris-HCl pH 7.4, 150 mmol/L potassium chloride, 10 mmol/L magnesium chloride). After the reaction, 50 μL of reaction liquid were added to 100 μL of methanol/acetonitrile=1/1 (v/v) solution, mixed, and centrifuged for 15 minutes at 3000 rpm. The compound according to the present invention in the centrifuged supernatant was quantified using LC/MS/MS or solid phase extraction (SPE)/MS; the residual amount of the compound according to the present invention after the reaction was calculated, taking the amount of the compound at the 0 min reaction point as 100%.

[4] = pooled human liver microsomes, 30 min at 37° C., NADPH, compound concentration 0.5 μmol/L

Row | Compound | FC in respect of mutant strain 1 (E138K/G140S/Q148H/N155H) [1] | FC in respect of mutant strain 2 (E92Q/E138T/G140S/Q148H) [2] | Remaining percentage [3, 4] [%] | Remaining percentage ([3]; human, microsomes, 0.5 h, 0.5 μmol/L, pH 7.4) [%]
1 | CCN1C(=O)c2c(O)c(=O)c(C(=O)NCc3ccc(F)cc3F)cn2N2C[C@H](COC)C[C@@H]12 [II-039] | 48 | 62 | 84.3 | –
2 | CN1C(=O)c2c(O)c(=O)c(C(=O)NCc3cccc(Cl)c3F)cn2N2C[C@@H]3CC[C@@H](C3)[C@@H]12 [II-023] | 9.9 | 15 | 74.2 | –
3 | CCN1C(=O)c2c(O)c(=O)c(C(=O)NCc3ccc(F)cc3F)cn2N2CC[C@H](C)C[C@@H]12 [II-064] | 27 | 22 | 104 | –
4 | CCN1C(=O)c2c(O)c(=O)c(C(=O)NCc3ccc(F)cc3F)cn2N2[C@H]3COC[C@H]3C[C@@H]12 [II-038] | 78 | 110 | – | 77.2
5 | C[C@H]1CC[C@H]2N(C)C(=O)c3c(O)c(=O)c(C(=O)NCc4ccc(Cl)cc4F)cn3N2C1 [II-063] | 38 | 25 | 95.7 | –
6 | CCN1C(=O)c2c(O)c(=O)c(C(=O)NCc3ccc(F)cc3F)cn2N2C[C@@H]3CCC[C@@H](C3)[C@@H]12 [II-013] | 6.1 | 8.7 | 77.6 | –
7 | COC[C@@H]1CC[C@H]2N(C(C)C)C(=O)c3c(O)c(=O)c(C(=O)NCc4ccccc4F)cn3N12 [II-005] | 4.6 | 7.7 | 80.8 | –
8 | CCN1C(=O)c2c(O)c(=O)c(C(=O)NCc3ccc(F)cc3F)cn2N2C[C@@H]3CCC[C@@H](O3)[C@@H]12 [II-150] | 26 | 16 | 98.6 | –
9 | CN1C(=O)c2c(O)c(=O)c(C(=O)NCc3cccc(Cl)c3F)cn2N2C[C@@H]3CCC[C@@H](C3)[C@@H]12 [II-139] | 18 | 10 | 75.4 | –
10 | CC(C)N1C(=O)c2c(O)c(=O)c(C(=O)NCc3ccc(F)cc3F)cn2N2C[C@@H]3CC[C@@H](O3)[C@@H]12 [II-016] | 6.6 | 9 | 89.1 | –
11 | CCN1C(=O)c2c(O)c(=O)c(C(=O)NCc3ccc(F)cc3F)cn2N2C[C@@H](COC)C[C@@H]12 [II-056] | 15 | 28 | 94.3 | –
12 | CCN1C(=O)c2c(O)c(=O)c(C(=O)NCc3c(F)cc(F)cc3F)cn2N2C[C@@H]3CC[C@@H](C3)[C@@H]12 [II-014] | 5.7 | 7.3 | 74.3 | –
13 | CN1C(=O)c2c(O)c(=O)c(C(=O)NCc3cccc(Cl)c3F)cn2N2C[C@@H]3CC[C@@H](O3)[C@@H]12 [II-058] | 25 | 15 | 97.7 | –
14 | CCN1C(=O)c2c(O)c(=O)c(C(=O)NCc3ccc(F)nc3F)cn2N2C[C@@H]3CC[C@@H](O3)[C@@H]12 [II-152] | 36 | 25 | 105 | –
15 | C[C@H]1CC[C@H]2N(C)C(=O)c3c(O)c(=O)c(C(=O)NCc4cccc(Cl)c4F)cn3N2C1 [II-019] | 7.3 | 7 | 84.1 | –
